# Measured values as given in patent US20100249030A1, “ANTI-MITOTIC AGENT AND AURORA KINASE INHIBITOR COMBINATION AS ANTI-CANCER TREATMENT” (Schering Corporation, priority 2007, published 2010).
# Read-outs that look alike come from different tables or passages of the source.
# Key:
# phos-MPM2 marker = experiment: Exit from mitosis measured by phos-MPM2 marker after anti-mitotic induced arrest; format: cell-based; conditions: taxane and KSP induced arrest
# Experimental: (§1) Single agent Aurora kinase inhibitors require a drug exposure time of 24 hours to induce endoreduplication in asynchronous cells.
# cancer cell lines = conditions: cited from earlier work; for cell growth inhibition in combination with a taxane: VX-680 with taxotere, VE-645 with taxol, AZD1152 with taxol, AACR 2007 abstracts; for synergy with Taxotere: Hoover and Harding 2007
# [1] = tested on: HCT-116 colon cancer cells; experiment: FACS (flow cytometric) analysis of endoreduplication (>4N DNA content) in HCT-116 colon cancer cells; format: cell-based; conditions: after 16 hours 10 nM Ispinesib pretreatment; 1000 nM Compound X / 25 nM Compound Z
# [2] = tested on: HCT-116 colon cancer cells; experiment: as above; format: cell-based; conditions: for Aurora kinase inhibitor exposure at which endoreduplication was still observed (as little as): after 16 hours 5 nM taxotere pretreatment; for exposure to Aurora kinase inhibitor required to induce endoreduplication (>4N DNA content) or cell death: asynchronous cells, 250 nM VX-680, 1000 nM COMPOUND X, 25 nM COMPOUND Z; for exposure to Aurora kinase inhibitor required to induce endoreduplication (>4N DNA content) or cell death / endoreduplication (>4N DNA content): single agent; for time required for Aurora inhibitor to induce endoreduplication, change after pre-treatment: following 16 hour pre-treatment with nocodazole, 250 nM VX-680, 1000 nM COMPOUND X or COMPOUND Z; for cell cycle distribution after release from anti-mitotic pretreatment: 16 hours pretreatment (5 nM taxotere / 0.4 μg/ml nocodazole), then released into DMSO; for cell cycle distribution after anti-mitotic pretreatment (labeled 0 hours): 16 hours pretreatment, 5 nM taxotere / 0.4 μg/ml nocodazole; for effect of anti-mitotic pre-treatment on the exposure time required for an Aurora kinase inhibitor to induce endoreduplication: 16 hour pre-treatment with the anti-mitotic agent (5 nM taxol, 10-50 nM KSP inhibitors)
# Experimental: Asynchronous cells require 24 hour exposure to Aurora kinase inhibitors (such as 250 nM VX-680 or 1000 nM COMPOUND X. (Compound X is disclosed in WO 2008/057512, filed Nov. 6, 2007, Example 4-3 and Claim 70, Example 4-3 and Claim 70 and is shown below and it is represented in Formula H and Table 2, column 2, row 17 of the present application) or 25 nM COMPOUND Z (Compound Z is disclosed in PCT US2008/007295, filed Jun. 11, 2008, Example 76-2 and Claim 25, row 7, column 4 and it is represented in Table 13, compound 76-2 of the present application)) to induce endoreduplication (>4N DNA content) or cell death. For example, HCT-116 colon cancer cells were treated with 1000 nM COMPOUND X or 25 nM COMPOUND Z for the indicated times at which time the drug was washed off and replaced with new media see FIG. 1 and FIG. 8 respectively. Cells were analyzed by FACS after a total of 72 hours.
# For example, HCT-116 colon cancer cells were treated with 1000 nM COMPOUND X or 25 nM COMPOUND Z for the indicated times at which time the drug was washed off and replaced with new media see FIG. 2 and FIG. 9 respectively. Cells were analyzed by FACS after a total of 24 hours.
# For example, HCT-116 colon cancer cells were treated for 16 hours with DMSO (FIG. 3) or 5 nM taxotere and then exposed to DMSO or 1000 nM COMPOUND X or 25 nM COMPOUND Z for 4, 8, and 24 hours. After 4 or 8 hours, COMPOUND X or COMPOUND Z was washed off and new media was added to the cells. Cells were harvested after 24 hours and analyzed by FACS (see FIG. 4 and FIG. 11 respectively). Following DMSO pretreatment, DMSO had no effect on cell cycle distribution. […] Endoreduplication was observed even when COMPOUND X or COMPOUND Z exposure was as little as 4 hours.
# However, following a 16 hour pre-treatment with nocodazole for incrusting, the time required for an Aurora inhibitor (such as 250 nM VX-680 or 1000 nM COMPOUND X or COMPOUND Z) to induce endoreduplication was […]. For example, HCT-116 colon cancer cells were treated for 16 hours with 0.4 μg/ml nocodazole see FIG. 5, and then exposed to DMSO or 1000 nM COMPOUND X or COMPOUND Z for 4, 8 or 24 hours. After 4 or 8 hours, COMPOUND X or COMPOUND Z was washed off and new media was added to the cells. Cells were harvested after 24 hours and analyzed by FACS.
# For example, HCT-116 colon cancer cells that were not pretreated, were treated with 5 nM taxotere plus DMSO or 1000 nM COMPOUND X or COMPOUND Z concurrently for 4, 8, or 24 hours. At the indicated time the media was removed and replaced with new media and taxotere was added back into these cells. Cells were harvested after 24 hours and analyzed by FACS see FIG. 6 or FIG. 12 respectively.
# [3] = tested on: phosphorylation of Histone H3 (at serine-10); experiment: Inhibition of phosphorylation of Histone H3 (serine-10) stimulated by anti-mitotic agents; format: cell-based; conditions: stimulated by taxanes, KSP inhibitor, and nocodazole
# Experimental: as §1
# [4] = tested on: cells arrested with taxol, monastrol or nocodazole; conditions: Morrow et al. 2005, Ditchfield et al. 2003, cited from earlier work
# [5] = 16 hours 5 nM taxotere pretreatment, then 1000 nM Compound X or 25 nM Compound Z for 4, 8 and 24 hours, FACS at 24 hours
# [6] = 16 hours 10 nM Ispinesib (KSP inhibitor) pretreatment, then 1000 nM Compound X or 25 nM Compound Z for 4, 8 and 24 hours, FACS at 24 hours
# [7] = 16 hours DMSO pretreatment, then 1000 nM COMPOUND X or 25 nM COMPOUND Z for 4, 8 and 24 hours, FACS at 24 hours
# [8] = 16 hours nocodazole (0.4 μg/ml) pretreatment, then 4- or 8-hour exposure to Aurora kinase inhibitor, FACS at 24 hours
# [9] = 16 hours nocodazole (0.4 μg/ml) pretreatment, then 24 hour exposure to Aurora kinase inhibitor, FACS at 24 hours
# [10] = Aurora kinase inhibitor given at the same time as 5 nM taxotere, 4 hour exposure, FACS at 24 hours
# [11] = Aurora kinase inhibitor given at the same time as 5 nM taxotere, no pretreatment
# [12] = 1000 nM Compound X / 25 nM Compound Z
# [13] = 24 hour exposure, FACS after a total of 24 hours, 250 nM VX-680 / 1000 nM Compound X / 25 nM Compound Z
# [14] = drug exposure for 24, 48, or 72 hours, FACS after a total of 72 hours, 1000 nM Compound X / 25 nM Compound Z
# [15] = exposure less than 24 hours then drug washed off, FACS after a total of 72 hours, 1000 nM Compound X / 25 nM Compound Z
# [16] = exposure less than 24 hours then washed off, FACS after a total of 24 hours, 250 nM VX-680 / 1000 nM Compound X / 25 nM Compound Z
smiles,measurement,setting,value
"CCN(CCCOc1ccc2c(Nc3cc(CC(=O)Nc4cccc(F)c4)n[nH]3)ncnc2c1)CCOP(=O)(O)O [AZD1152, reference compound]","exit from mitosis, as measured by phos-MPM2 marker",phos-MPM2 marker,accelerated the exit from mitosis
same,cell growth inhibition in combination with a taxane,cancer cell lines,showed enhanced cell growth inhibition
CSc1cn2c(-c3cn[nH]c3)cnc2c(Nc2cc(C)ns2)n1 [Compound X],"exit from mitosis, as measured by phos-MPM2 marker",phos-MPM2 marker,accelerated the exit from mitosis
same,Aurora kinase inhibitor exposure at which endoreduplication was still observed (as little as),[1],≤ 4 h
same,endoreduplication,[2]; [5],induced endoreduplication
same,endoreduplication,[2]; [6],induced endoreduplication
same,endoreduplication,[2]; [7],"induced endoreduplication, but only when COMPOUND X or COMPOUND Z exposure was 24 hours"
same,endoreduplication,[2]; [8],insufficient to induce endoreduplication
same,endoreduplication,[2]; [9],induced endoreduplication
same,endoreduplication,[2]; [10],not sufficient to induce endoreduplication
same,exposure needed to induce endoreduplication,[2]; [11],24 h
same,Aurora kinase inhibitor exposure at which endoreduplication was still observed (as little as),[2]; [12],≤ 4 h
same,exposure to Aurora kinase inhibitor required to induce endoreduplication (>4N DNA content) or cell death,[2],24 h
same,"time required for Aurora inhibitor to induce endoreduplication, change after pre-treatment",[2],not reduced
same,endoreduplication (>4N DNA content),[2]; [13],sufficient to induce endoreduplication
same,endoreduplication (>4N DNA content),[2]; [14],resulted in the accumulation of cells that underwent endoreduplication
same,endoreduplication (>4N DNA content),[2]; [15],insufficient to induce endoreduplication
same,endoreduplication (>4N DNA content),[2]; [16],insufficient to induce endoreduplication
same,inhibition of phosphorylation of Histone H3 (at serine-10),[3],capable of inhibiting phosphorylation of Histone H3
CCN(Cc1cc(Nc2nc(C)cn3c(-c4cn[nH]c4)cnc23)sn1)C(C)(C)CO [Compound Z],"exit from mitosis, as measured by phos-MPM2 marker",phos-MPM2 marker,accelerated the exit from mitosis
same,Aurora kinase inhibitor exposure at which endoreduplication was still observed (as little as),[1],≤ 4 h
same,endoreduplication,[2]; [5],induced endoreduplication
same,endoreduplication,[2]; [6],induced endoreduplication
same,endoreduplication,[2]; [7],"induced endoreduplication, but only when COMPOUND X or COMPOUND Z exposure was 24 hours"
same,endoreduplication,[2]; [8],insufficient to induce endoreduplication
same,endoreduplication,[2]; [9],induced endoreduplication
same,endoreduplication,[2]; [10],not sufficient to induce endoreduplication
same,endoreduplication,"[2]; Aurora kinase inhibitor given at the same time as 5 nM taxotere, 4 hour exposure, FACS at 24 hours, listed as COMPOUND Z",not sufficient
same,exposure needed to induce endoreduplication,[2]; [11],24 h
same,exposure needed to induce endoreduplication,[2]; Aurora kinase inhibitor given at the same time as Ispinesib (KSP inhibitor),24 h
same,endoreduplication,"[2]; Aurora kinase inhibitor given at the same time as Ispinesib (KSP inhibitor), 4 hour exposure",not sufficient to induce endoreduplication
same,Aurora kinase inhibitor exposure at which endoreduplication was still observed (as little as),[2]; [12],≤ 4 h
same,exposure to Aurora kinase inhibitor required to induce endoreduplication (>4N DNA content) or cell death,[2],24 h
same,"time required for Aurora inhibitor to induce endoreduplication, change after pre-treatment",[2],not reduced
same,endoreduplication (>4N DNA content),[2]; [13],sufficient to induce endoreduplication
same,endoreduplication (>4N DNA content),"[2]; 24 hour exposure, FACS after a total of 24 hours, 250 nM VX-680 / 1000 nM Compound X / 25 nM Compound Z, listed as COMPOUND Z",resulted in the accumulation of cells that underwent endoreduplication
same,endoreduplication (>4N DNA content),[2]; [14],resulted in the accumulation of cells that underwent endoreduplication
same,endoreduplication (>4N DNA content),[2]; [15],insufficient to induce endoreduplication
same,endoreduplication (>4N DNA content),[2]; [16],insufficient to induce endoreduplication
same,inhibition of phosphorylation of Histone H3 (at serine-10),[3],capable of inhibiting phosphorylation of Histone H3
Cc1cc(Nc2cc(N3CCN(C)CC3)nc(Sc3ccc(NC(=O)C4CC4)cc3)n2)n[nH]1 [MK-0457],synergy with Taxotere,cancer cell lines; long-term survival assays,synergy occurred with simultaneous exposure
same,synergy with Taxotere,cancer cell lines; short-term viability assays,synergy occurs with sequential and not simultaneous exposure
"CC(=O)O[C@@]12CO[C@@H]1C[C@H](O)[C@@]1(C)C(=O)[C@H](O)C3=C(C)[C@@H](OC(=O)[C@H](O)[C@@H](NC(=O)OC(C)(C)C)c4ccccc4)C[C@@](O)([C@@H](OC(=O)c4ccccc4)[C@H]21)C3(C)C [Taxotere, docetaxel, reference compound]",cell cycle distribution after release from anti-mitotic pretreatment,[2],exited mitosis
same,cell cycle distribution after anti-mitotic pretreatment (labeled 0 hours),[2],accumulated in mitosis (4N DNA)
"Cc1cc(Nc2cc(N3CCN(C)CC3)nc(Sc3ccc(NC(=O)C4CC4)cc3)n2)n[nH]1 [VX-680, reference compound]","exit from mitosis, as measured by phos-MPM2 marker",phos-MPM2 marker,accelerated the exit from mitosis
same,cell growth inhibition in combination with a taxane,cancer cell lines,showed enhanced cell growth inhibition
same,exposure to Aurora kinase inhibitor required to induce endoreduplication (>4N DNA content) or cell death,[2],24 h
same,"time required for Aurora inhibitor to induce endoreduplication, change after pre-treatment",[2],not reduced
same,endoreduplication (>4N DNA content),[2]; [13],sufficient to induce endoreduplication
same,endoreduplication (>4N DNA content),[2]; [16],insufficient to induce endoreduplication
same,inhibition of phosphorylation of Histone H3 (at serine-10),[3],capable of inhibiting phosphorylation of Histone H3
COc1cc2c(Nc3ccc(NC(=O)c4ccccc4)cc3)ncnc2cc1OCCCN1CCOCC1 [ZM4477439],mitotic arrest,[4]; arrest induced by nocodazole,not by nocodazole
same,mitotic arrest,[4]; arrest induced by taxol,abrogated mitotic arrest induced by taxol
"COC(=O)Nc1nc2ccc(C(=O)c3cccs3)cc2[nH]1 [nocodazole, reference compound]",effect of anti-mitotic pre-treatment on the exposure time required for an Aurora kinase inhibitor to induce endoreduplication,[2],did not result in the same reduction in required exposure time
same,cell cycle distribution after release from anti-mitotic pretreatment,[2],exited mitosis
same,cell cycle distribution after anti-mitotic pretreatment (labeled 0 hours),[2],accumulated in mitosis (4N DNA)
"CC[C@]1(O)C[C@H]2CN(CCc3c([nH]c4ccccc34)[C@@](C(=O)OC)(c3cc4c(cc3OC)N(C=O)[C@H]3[C@@](O)(C(=O)OC)[C@H](OC(C)=O)[C@]5(CC)C=CCN6CC[C@]43[C@@H]65)C2)C1 [vincristine, reference compound]",effect of anti-mitotic pre-treatment on the exposure time required for an Aurora kinase inhibitor to induce endoreduplication,[2],did not result in the same reduction in required exposure time
